Measurements: patent US12529101B2, “Methods and reagents for characterizing genomic editing, clonal expansion, and associated applications” (TwinStrand Biosciences, Inc., priority 2018, dated 2026)

Legend:
human HRAS transgene = experiment: Duplex Sequencing detection of clonally expanded cancer driver mutations after urethane dosing; assay type: in vivo, mouse
Description: (§1) In this example, the impact of urethane is examined in different mouse tissue types (lung, spleen, blood) in an FDA-accepted cancer-predisposed mouse model: Tg.rasH2 (Saitoh et al. Oncogene 1990. PMID 2202951). This mouse contains ˜3 tandem copies of human HRAS with an activating enhancer mutation to boost expression on one hemizygous allele. These mice are predisposed to splenic angiosarcomas and lung adenocarcinomas, and are routinely used for 6 month carcinogenicity studies to substitute for 2 year wild-type animal studies. Tumors found in the mice have usually acquired activating mutations in one copy of the human HRAS protooncogene. Thus, the human HRAS transgene serves a model target cancer driver gene in these animals. Sequence analysis and mutation detection was performed for 4 native mouse genes (Rho, Hp, Ctnnb1, Polr1c), along with the native mouse Hras, Kras, Nras and human HRAS transgene.
(§2) In this example, Tg.rasH2 mice (n=5/group) were dosed with vehicle or a model mutation-inducing agent (e.g., a carcinogenic dose of urethane) (day 1,3,5) and sacrificed on day 29 for mutation detection by Duplex Sequencing in target tissues (lung, spleen) and whole blood. Target endogenous genes (Rho, Hp, Ctnnb1, Polr1c) and the native mouse Hras and human HRAS (trans)genes were also sequenced.

Tg.rasH2 mice = experiment: Duplex Sequencing of mutation induction and mutation spectrum in lung, spleen and blood; assay type: in vivo, mouse
Description: as §1, §2

CCOC(N)=O [urethane]
treated spleen samples with mutations in human HRAS codon 61 (human HRAS transgene; Tg.rasH2 mice, day 29, spleen, one at the same position, one on an adjoining base pair): two | urethane treated lung samples with the human HRAS codon 61 T>A mutation (human HRAS transgene; Tg.rasH2 mice, n=5/group, day 29, lung): 4/5 | urethane-treated splenic samples with T>A transversion at the human oncogenic HRAS codon 61 hotspot (human HRAS transgene; Tg.rasH2 mice, n=5/group, spleen): 1/5 | doubling time of the selected clone cells (human HRAS transgene; by calculation, 29 days, assuming no cell death): ~1.8 days | variant allele frequencies of the codon 61 mutation in exon 3 of human HRAS (human HRAS transgene; urethane treated lung samples, Tg.rasH2 mice, day 29, T→A transversions in the context CTG): 0.1%-1.8 | cells encompassed by the highest allele fraction clone (human HRAS transgene; within the 29 days of the study): more than 90,000 cells | mutation induction in peripheral blood (Tg.rasH2 mice; compared with spleen): closely mirrored that seen in the spleen | triplet mutation spectrum (Tg.rasH2 mice; distinguishable from the vehicle control): strong propensity for T→A and T→C mutations within the context of “NTG” | tissue-specific variations in the extent of mutation induction (Tg.rasH2 mice; lung, spleen, blood): lung being observed to be more mutation prone than spleen and blood
